The test system of data set [1] is HepG2 cells. In words: Cellular intake assay (HPLC-DAD). In kind it is in vitro ADME, human. The settings on record: HepG2, 5 μM, 1 h. As to the method:
HepG2 cells (1 × 10^5−1 × 10^6 cells/mL) were cultivated overnight at 37°C and then treated with 5 μM EpoB and glycosides for 1 h. After removing the supernatant, the cells were sequentially rinsed with PBS buffer, trypsinized, and then washed with DMEM. Next, the cells were suspended in acetone, disrupted by ultrasonication, and centrifuged at 12000 rpm for 10 min to remove the debris. The resulting supernatants were dried with nitrogen and then redissolved in 200 μL of methanol. Finally, the compounds were analyzed by HPLC-DAD at 249 nm. Each experiment was conducted in three replicates. The concentrations of EpoB and its glycosides (cellular intake) were calculated based on the linear fitting regression equations of the HPLC peak areas.

The test system of data set [2] is liver carcinoma cell line HepG2. In words: MTT antitumor assay. Type of data set: cell-based, human. The source says:
(§1) NDP-glucose (UDPG, ADPG, TDPG, and GDPG), UDP-N-acetylglucosamine (UDP-GlcNAc), UDP-galactose (UDP-Gal), and UDP-glucuronic acid (UDP-GlcA) were purchased from Sigma-Aldrich (St. Louis, MO, USA). UDP-GlcNAz, UDP-GalNAz, UDP-GlcNTFA, UDP-GalNTFA, UDP-GalNAc, UDP-GalA, CMP-Neu5Ac, GDP-Fuc and GDP-Man were kindly provided by Professor Junqiang Fang[59]–[63]. Epothilone B was purchased from Zhejiang Hisun Pharmaceutical Co., Ltd. The human liver carcinoma cell line HepG2 and human hepatocyte cell line HL-7702 were purchased from Gaining (Gaining Bio. Co., Ltd, Shanghai, China). The cells were cultivated in T-25 flasks in a Thermo Scientific CO2 incubator in a humidified environment at 37°C and 5% CO2. HepG2 cells were preserved in DMEM (Gibco, Thermo Fisher Scientific, Waltham, MA, USA), while HL-7702 cells were preserved in RPMI-1640 (Gibco, Thermo Fisher Scientific, Waltham, MA, USA). All cultures contained 10% fetal calf serum and 1% penicillin C/streptomycin. All chemicals and reagents are of analytical grade.
(§2) By using the MTT colorimetric assay, the antitumor and cytotoxicity of EpoB and its glucosides were tested against the liver carcinoma cell line HepG2 and hepatocyte cell line HL-7702, respectively. The cells were seeded in a 96-well microtiter plate, and the wall-attached cells were treated with varying concentrations of drugs by dilution from 300 μM to 0.1 μM for EpoB glycosides (dissolved in DMSO). After 48 h of incubation with the test compounds, the cultures were treated with MTT (2 mg/mL) solution, and the cells were incubated for an additional 4 h at 37°C until a purple precipitate was visible. The purple formazan crystals were dissolved in DMSO, and the absorbance of each sample was measured at 492 nm using a microplate reader. All MTT assay experiments were performed in triplicate, and IC50 values were calculated using GraphPad Prism software (Version 6.01)[26].

Data set [3] can be described thus: physchem. In kind it is physicochemical. The settings on record: water. The protocol: The water solubility of EpoB and its glycosides was determined using the minimum shake-flask solubility method[26],[75].
Data set [4] concerns HepG2 cells. In words: Immunofluorescence confocal imaging of tubulin. Type of data set: cell-based, human. Particulars: HepG2, 24 h. As to the method:
Freshly trypsinized HepG2 cells (1 × 10^4−1 × 10^5) were seeded in a 12-well plate and cultivated for 24 h with DMEM (Gibco, Thermo Fisher Scientific, Waltham, MA, USA). Cells were treated with EpoB and 1a at different concentrations (50 nM, 500 nM, and 5 μM) according to the IC50 values for 24 h. The supernatants were removed, and the cells were washed with PBS buffer 2–3 times. The cells were further fixed with 4% paraformaldehyde for 1 h and then permeabilized with 0.2% Triton X-100 (diluted in PBS buffer) for 10 min. Next, the cells were blocked with bovine serum albumin (BSA) for 30 min and incubated with a primary antibody against β-tubulin (1:50, diluted in 2% BSA, β-tubulin Rabbit Monoclonal Antibody, Beyotime Biotechnology) for 1 h at room temperature. After that, the cells were treated with Alexa Fluor 488 goat anti-rabbit IgG (H + L) (secondary antibody, 1:500, diluted in 2% BSA, Beyotime Biotechnology) for another 1 h. The supernatants were removed, the cells were washed, and the nuclei were labeled with DAPI for 10 min. Images were collected using an Olympus BX81 fluorescence microscope system (Olympus, Tokyo, Japan) and a confocal microscope (UltraVIEW®VoX).

Data set [5] concerns hepatocyte cell line HL-7702. In words: MTT cytotoxicity assay. Type of data set: cell-based, human.
Text: as §1, §2

The target in data set [6] is T1, BsGT-1 I62A (Bacillus subtilis, UniProt O34539, I62A).
T1 construct: made in house; host or cells: E. coli BL21 (DE3)
In kind it is biochemical. The settings on record: EpoB converted to 1a, sugar donor 2a. As to the method:
(§3) Kinetic parameters of BsGT-1 and its mutants for the glycosylation of epothilone B were measured in a reaction mixture (50 μl) containing 20 μg/mL protein, saturated sugar donors, different concentrations of epothilone B, and 50 mM Tris–HCl buffer (50 mM Tris–HCl, pH 7.5, 10 mM MgCl2) at 37°C for 10 min in triplicate. The kinetic values were determined by fitting the Michaelis–Menten curve to the data using the nonlinear regression method (Supplementary Figs. 13–14).

Data set [7] addresses T2, BsGT-1 Q318C (Bacillus subtilis, UniProt O34539, Q318C).
T2 construct: made in house; host or cells: E. coli BL21 (DE3)
In words: Glycosylation kinetics, BsGT-1 Q318C mutant. In kind it is biochemical. The settings on record: EpoB converted to 1e, sugar donor 2e. The protocol:
as §3

Data set [8] concerns the target T3, BsGT-1 M296A (Bacillus subtilis, UniProt O34539, M296A).
T3 construct: made in house; host or cells: E. coli BL21 (DE3)
In words: Glycosylation kinetics, BsGT-1 M296A mutant. In kind it is biochemical. The settings on record: EpoB converted to 1i, sugar donor 2i. The protocol:
as §3

Data set [9] has as its target T4, BsGT-1 F231S (Bacillus subtilis, UniProt O34539, F231S).
T4 construct: made in house; host or cells: E. coli BL21 (DE3)
As to the kind of experiment: Glycosylation kinetics, BsGT-1 F231S mutant. In kind it is biochemical. The settings on record: EpoB converted to 1h, sugar donor 2h. As to the method:
as §3

Setting [10] is: read-out: IC50 HepG2, MTT, 48 h.
[11] abbreviates: read-out: IC50 HL-7702, MTT, 48 h.
[12] abbreviates: Homo sapiens, HepG2, 48 h, read-out: IC50 HepG2, MTT, 48 h.
Where [13] appears, read: 25 °C, thermodynamic from solid, read-out: Solubility.
Where [14] appears, read: Homo sapiens, L02, 48 h, read-out: IC50 HL-7702, MTT, 48 h.

SMILES strings stand for the structures. Values after ≈ are worked out from the molar mass of the structure shown. Where two headings read alike, the source gives them in different places.

The IC50 is the midpoint of a concentration-inhibition curve. In general, solubility refers to how much of the substance goes into solution per volume. Consider `CC(=Cc1csc(C)n1)C1CC2OC2(C)CCCC(C)C(OC2OC(CO)C(O)C(O)C2O)C(C)C(=O)C(C)(C)C(O)CC(=O)O1` (stereo not drawn) [1a, EpoB 7-O-β-D glucoside], for which the “cellular intake rate, lower than that of EpoB” value in data set [1] worked out at 12 fold. The concentration for half-maximal inhibition (IC50) in [2] (setting [10]) was determined as 9.84 ± 0.57 µM; in data set [5] (setting [11]) it was 27.6 ± 1.76 µM. Moreover, the solubility in [3] (25°C) amounted to 1550 ± 90 µg/mL (≈ 2.31 mM). In [4], the “penetration into tumor cells and interaction with tubulin” value is “could penetrate into the tumor cells and interact with tubulin”.
Turning to `CC(=Cc1csc(C)n1)C1CC2OC2(C)CCCC(C)C(OC2OC(CO)C(O)C(OC3OC(CO)C(O)C(O)C3O)C2O)C(C)C(=O)C(C)(C)C(O)CC(=O)O1` [1b, EpoB 7-O-β-D-glucosyl-(1 → 3)-β-D glucoside], in [2] (setting [12]), the 50% inhibitory concentration (IC50) was over 100 µM. The solubility in data set [3] (setting [13]) was determined as 86400 ± 1450 µg/mL (≈ 104 mM).
Consider `CC(=Cc1csc(C)n1)C1CC2OC2(C)CCCC(C)C(OC2OC(CO)C(O)C(O)C2OC2OC(CO)C(O)C(O)C2O)C(C)C(=O)C(C)(C)C(O)CC(=O)O1` [1c, EpoB 7-O-β-D-glucosyl-(1 → 2)-β-D glucoside], for which the half-inhibitory concentration (IC50) in data set [2] (setting [12]) is 34.2 ± 4.16 µM; in data set [5] (setting [14]), 46.6 ± 0.48 µM. Also, the solubility in data set [3] (setting [13]) amounted to 83000 ± 1540 µg/mL (≈ 99.8 mM).
`C/C(=C\c1csc(C)n1)[C@@H]1C[C@@H]2O[C@]2(C)CCC[C@H](C)[C@H](O[C@@H]2O[C@H](CO)[C@@H](O[C@@H]3O[C@H](CO)[C@@H](O)[C@H](O)[C@H]3O[C@@H]3O[C@H](CO)[C@@H](O)[C@H](O)[C@H]3O)[C@H](O)[C@H]2O)[C@@H](C)C(=O)C(C)(C)[C@@H](O)CC(=O)O1` [1d, epothilone B 7-O-β-D-glucosyl-(1 → 2)-β-D-glucosyl-(1 → 4)-β-D glucoside]: the IC50 in [2] (MTT, 48 h, read-out: IC50 HepG2) is 38.2 ± 2.41 µM; in data set [5] (MTT, 48 h, read-out: IC50 HL-7702), 42.8 ± 1.15 µM. The compound further had a solubility in [3] (25°C) of 184830 ± 3500 µg/mL (≈ 186 mM).
As for `CC(=O)NC1C(OC2C(C)CCCC3(C)OC3CC(C(C)=Cc3csc(C)n3)OC(=O)CC(O)C(C)(C)C(=O)C2C)OC(CO)C(O)C1O` (stereo not shown) [1e], the concentration for half-maximal inhibition (IC50) in [2] (setting [12]) was found to be 19.8 ± 0.88 µM; in data set [5] (setting [14]) it was 31.1 ± 3.77 µM. For the same compound, in [3] (setting [13]), the solubility is 8220 ± 930 µg/mL (≈ 11.6 mM).
For `CC(=Cc1csc(C)n1)C1CC2OC2(C)CCCC(C)C(OC2OC(CO)C(O)C(O)C2NC(=O)CN=[N+]=[N-])C(C)C(=O)C(C)(C)C(O)CC(=O)O1` (stereo not shown) [1h], in that order: 30.2 ± 2.91 µM, 40.4 ± 1.73 µM and 4340 ± 540 µg/mL (≈ 5.77 mM).
With `CC(=Cc1csc(C)n1)C1CC2OC2(C)CCCC(C)C(OC2OC(CO)C(O)C(O)C2O)C(C)C(=O)C(C)(C)C(O)CC(=O)O1` (stereo not shown) [1i], the “cellular intake rate, lower than that of EpoB” value in data set [1] amounted to 8 fold. Besides, in [2] (HepG2, relative to 1a), the “activity higher than that of glucose-modified EpoB (1a)” value is recorded as about 10 fold. Further, the IC50 was found to be 1.09 ± 0.26 µM in [2] (setting [10]) and 9.13 ± 1.02 µM in data set [5] (setting [11]). The solubility in data set [3] (25°C) worked out at 3370 ± 550 µg/mL (≈ 5.03 mM).
What is called Km is the substrate concentration at which the rate is half of its maximum. Broadly, the kcat is the number of substrate molecules converted per active site and unit of time at saturation. Regarding `C/C(=C\c1csc(C)n1)[C@@H]1C[C@@H]2O[C@]2(C)CCC[C@H](C)[C@H](O)[C@@H](C)C(=O)C(C)(C)[C@@H](O)CC(=O)O1` [EpoB, epothilone B], the Km amounted to 43.6 ± 4.16 µM in data set [6], 95.9 ± 7.98 µM in data set [7], 147 ± 17 µM in [8] and 127 ± 12.9 µM in [9]. The catalytic constant (kcat) was 0.3975 ± 0.023 s⁻¹ in [6], 0.164 ± 0.00367 s⁻¹ in data set [7], 0.0555 ± 0.003 s⁻¹ in data set [8] and 0.0723 ± 0.0033 s⁻¹ in [9]. In addition, the IC50 was under 0.002 µM in [2] (setting [12]), 0.00139 ± 0.0003 µM in [2] (setting [10]), under 0.003 µM in [5] (setting [14]) and 0.00293 ± 0.00053 µM in [5] (setting [11]). For the same compound, the solubility in data set [3] (thermodynamic from solid, 25°C, read-out: Solubility) was found to be 190 ± 30 µg/mL (≈ 0.374 mM).
